This is an account of results in paper PMC4559561, “Radioiodinated PARP1 tracers for glioblastoma imaging” (EJNMMI Research, 2015).

A short description of series [1]: Plasma protein fraction by rapid equilibrium dialysis in mouse serum. Format: in vitro ADME. To be noted: 10 μM compound in mouse serum vs PBS, 37 °C, read-out: Plasma Free Fraction. The procedure:
The plasma protein fraction was determined using the Rapid Equilibrium Dialysis Device System (Life Technologies, Grand Island, NY) according to the manufacturer’s protocol. Membrane dialysis was performed with 10 μM of compound in mouse serum (500 μL) on one side of the membrane and PBS (750 μL) on the other side. The system was sealed with parafilm and incubated for 4 h at 37 °C on an orbital shaker set to 250 rpm. Thereafter, 400 μL of solution was taken from both sides, and samples were treated twice with an equal amount of AcN and vortexed to remove protein before HPLC analysis. After injection (100 μL), the I-PARPi peaks from each sample were then integrated and the protein bound fraction was determined. The data was analyzed using Prism 6.0c.

For series [2], the system named is U87 MG subcutaneous tumors. The series is described as follows: In vivo blocking study: PARPi-FL uptake in tumors, ex vivo epifluorescence imaging. Also noted: species or system mouse. The text has this: One hour post injection, the mice were sacrificed and the tumors were resected and imaged with the IVIS spectrum fluorescence imaging system (PerkinElmer, Waltham, MA) using Living Image 4.4 software. The tumors were also imaged microscopically with the 5Live fluorescent confocal microscope using the 488 nm laser for PARPi-FL excitation.

Series [3] concerns the target T1, PARP1 high specific activity (HSA) enzyme (Homo sapiens, UniProt P09874).
T1 construct: purchased Trevigen, Gaithersburg, MD
The series is described as follows: PARP-1 IC50 determination, commercial colorimetric assay (Trevigen). It is filed as biochemical. To be noted: 0.5 U PARP1 HSA enzyme, 10 min, histone-coated plates, triplicate. How it is done: A commercially available colorimetric assay (Trevigen, Gaithersburg, MD) was used to measure PARP-1 activity in vitro in the presence of varying concentrations of the different iodo-[…]. […] All experiments were carried out in triplicate. […] All reaction mixtures were adjusted to a final volume of 50 μl, and a final concentration of 1 % DMSO in assay buffer. The remainder of the assay was performed according to the manufacturer's instructions. PARP1 activity was measured by absorbance at 450 nm in each well using a SpectraMax M5 spectrophotometer with SoftMax Pro software (Molecular Devices, Sunnyvale, CA).

The nature of series [4]: Chemical hydrophobicity index (CHI) by reverse phase HPLC, Log P derived from CHI. It is filed as physicochemical. As to conditions: for CHI (chromatographic hydrophobicity index): from HPLC retention time against standards. How it is done: Chemical hydrophobicity indices (CHIs) were measured using procedures developed previously. Briefly, reverse phase HPLC was used to measure the retention times of a set of standards with known CHI. A standard curve was then created to calculate the CHIs of all iodo-PARPi based on the HPLC retention time.

The next series deals with U87 MG cells. The series is described as follows: In vitro blocking study: competitive inhibition of PARPi-FL uptake. Format: cell-based, human. As to conditions: 20 min. The procedure:
U87 MG cells were seeded into a 96-well plate in a concentration of 1 × 10^4 cells per well. After 24 h, the cells were incubated with either the fluorescent PARP1 inhibitor PARPi-FL (250 nM) alone or with one of the iodo-PARPi inhibitors at a 100-fold higher concentration (25 μM) for 20 min. […] All incubation solutions also included Hoechst 33342 nuclear stain (Sigma-Aldrich, St. Louis, MO). The cells were washed twice with media and once with PBS for 5 min each and imaged on an LSM 5Live confocal microscope (Zeiss, Oberkochen, Germany). All wells were imaged with the DAPI filter for the Hoechst staining and the FITC filter for the PARPi-FL staining. The DAPI and FITC channels were co-registered, and the green fluorescence in the location of the Hoechst staining was quantified for each image. The percent reduction in PARPi-FL uptake was calculated based on the level of fluorescence intensity seen in each image and normalized to the cells receiving no iodo-PARPi inhibitor. Experiments were performed in triplicate.

Series [5] deals with U251 MG subcutaneous xenografts. The series is described as follows: Biodistribution in U251 MG xenograft mice. Format: in vivo, mouse. To be noted: 2 h after tracer injection. How it is done: (§1) Biodistribution experiments were conducted on female nude mice (8–10 weeks old and 20–25 g in weight, n = 21) bearing U87 MG or U251 MG subcutaneous xenografts. The radiolabeled small molecule preparation ([…] of [^131I]-I2-PARPi in 200 μL of a solution 90 % PBS 10 % PEG300) was administrated via the lateral tail vein. To determine the optimal specific activity to achieve the highest tumor to organ ratio, various specific activities were tested (5, 50, and 250 mCi/μmol) in mice bearing U87 MG tumors. The compound was allowed to circulate for 2 h post injection at which time the mice were sacrificed and organs were harvested (n = 3). After determining the optimal specific activity, the optimal time for imaging was determined by testing the drug distribution in nude mice bearing U87 MG tumors at different time points. The drug was allowed to circulate for various times (1, 2, and 6 h), after which the mice were sacrificed (n = 3). The radioactive content in the tissue of interest (blood, tumor, muscle, bone, liver, spleen, kidney, heart, lung, pancreas, brain, skin, small intestine, large intestine, stomach, tail, thyroid, and feces) was measured on a Wizard 2470 Automatic Gamma Counter and the tissue-associated activity was calculated as the mean %ID/g.

Series [6] in a line: In vitro whole blood stability. Format: in vitro ADME. As to conditions: mouse blood, 37 °C, radio-HPLC. How it is done:
The in vitro stability was assessed by incubating 6 μCi [^131I]-PARPi in mouse blood for 0 to 60 min at 37 °C. At baseline, 15, 30, and 60 min, the samples were immediately placed on ice and mixed 1:1 with a solution of AcN/DMSO (250 μL) and then vigorously vortexed for 30 s to precipitate out serum protein. The sample was centrifuged at 3000 RCF for 3 min at 4 °C, and the supernatant was collected. This procedure was repeated three times, and the combined supernatants were analyzed by HPLC equipped with radioactive detector (Shimadzu, Kyoto, Japan), collecting samples every 30 s. Radioactivity of each fraction was measured on a Wizard 2470 Automatic Gamma Counter (Perkin Elmer, Waltham, MA), and the blood stability was analyzed using Prism 6.0c (GraphPad Software, La Jolla, CA).

The subject of series [7] is U87 MG subcutaneous xenografts. The series is described as follows: Biodistribution in U87 MG xenograft mice. As to conditions: U87 MG tumor-bearing mice, 2 h post intravenous injection. Format: in vivo, mouse. The procedure: as §1
The nature of series [8]: Blood half-life by serial blood sampling. Format: in vivo, mouse. To be noted: healthy athymic nude mice, 50 μCi i.v. How it is done:
Blood half-life was determined by measuring the activity in serial blood samplings. Specifically, healthy female nude mice (8–10 weeks old, 20–25 g in weight, n = 3) were injected via the tail vein with 50 μCi [^131I]-I2-PARPi in 200 μL of solution PBS/PEG300 (10:1). The blood was sampled from the saphenous vein at 5, 15, 30, 60, 120, and 240 min post injection. The blood was weighed and radioactivity was measured on a Wizard 2470 Automatic Gamma Counter (Perkin Elmer, Waltham, MA). Measurements in counts per minute were calculated as the mean %ID/g. The blood half-life was calculated using Prism 6.0c (GraphPad Software, La Jolla, CA).

Where “and” joins values, the source holds several entries; their conditions need not be identical. Equal entries are not always repeated.

The IC50 is the concentration that inhibits the measured activity by half.

T1 sequence (P09874 whole entry): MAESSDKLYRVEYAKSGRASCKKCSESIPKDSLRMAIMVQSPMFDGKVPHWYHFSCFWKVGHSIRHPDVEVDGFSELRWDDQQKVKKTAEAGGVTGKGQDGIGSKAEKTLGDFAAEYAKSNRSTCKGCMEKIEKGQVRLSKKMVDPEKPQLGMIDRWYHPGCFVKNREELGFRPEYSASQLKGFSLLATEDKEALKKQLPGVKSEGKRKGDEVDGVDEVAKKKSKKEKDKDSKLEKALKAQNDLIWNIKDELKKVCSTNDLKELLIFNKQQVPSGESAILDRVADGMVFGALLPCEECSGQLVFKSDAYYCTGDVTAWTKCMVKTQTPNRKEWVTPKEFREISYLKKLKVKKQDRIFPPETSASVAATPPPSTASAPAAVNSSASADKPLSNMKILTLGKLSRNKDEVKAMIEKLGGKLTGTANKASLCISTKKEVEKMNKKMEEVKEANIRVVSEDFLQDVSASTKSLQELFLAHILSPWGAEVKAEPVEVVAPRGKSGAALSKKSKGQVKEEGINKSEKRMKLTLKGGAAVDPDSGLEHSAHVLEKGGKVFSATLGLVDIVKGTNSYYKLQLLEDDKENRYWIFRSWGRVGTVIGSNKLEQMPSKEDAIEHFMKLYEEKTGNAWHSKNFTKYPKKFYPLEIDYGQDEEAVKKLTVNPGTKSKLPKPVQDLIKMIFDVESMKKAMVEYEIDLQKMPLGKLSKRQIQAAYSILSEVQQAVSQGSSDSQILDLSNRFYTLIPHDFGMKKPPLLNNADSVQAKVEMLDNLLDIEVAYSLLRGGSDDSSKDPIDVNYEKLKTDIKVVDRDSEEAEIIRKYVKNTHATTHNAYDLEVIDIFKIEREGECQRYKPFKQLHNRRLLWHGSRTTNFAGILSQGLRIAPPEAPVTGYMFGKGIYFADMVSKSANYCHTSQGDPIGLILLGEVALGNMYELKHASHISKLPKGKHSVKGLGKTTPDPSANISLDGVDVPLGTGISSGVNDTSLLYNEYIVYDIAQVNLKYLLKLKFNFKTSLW

For `O=C(c1cccc(I)c1)N1CCN(C(=O)c2cc(Cc3n[nH]c(=O)c4ccccc34)ccc2F)CC1` [I1-PARPi, 4-(4-fluoro-3-(4-(3-iodobenzoyl)piperazine-1-carbonyl)benzyl)phthalazin-1(2H)-one], the fraction unbound at 4 h, 10 μM in series [1] came to 0.096 ± 0.015.
For the molecule `O=C(c1ccc(I)cc1)N1CCN(C(=O)c2cc(Cc3n[nH]c(=O)c4ccccc34)ccc2F)CC1` [I2-PARPi, 4-(4-fluoro-3-(4-(4-iodobenzoyl)piperazine-1-carbonyl)benzyl)phthalazin-1(2H)-one], the “reduction of PARPi-FL tumor fluorescence in vivo” value in series [2] (I2-PARPi 125 mg/kg 30 min before PARPi-FL 2.5 mg/kg, tumors resected 1 h post injection, vs PARPi-FL alone) turned out to be 78 ± 4%. In addition, the fraction unbound at 4 h, 10 μM in series [1] amounted to 0.115 ± 0.001.
`O=C(Cc1cccc(I)c1)N1CCN(C(=O)c2cc(Cc3n[nH]c(=O)c4ccccc34)ccc2F)CC1` [I3-PARPi, 4-(4-fluoro-3-(4-(2-(3-iodophenyl)acetyl)piperazine-1-carbonyl)benzyl)phthalazin-1(2H)-one] gave an IC50 in series [3] of 34 ± 3 nM. Further, the “CHI (chromatographic hydrophobicity index)” value in series [4] turned out to be 66.7. The fraction unbound at 4 h, 10 μM in series [1] came out at 0.07 ± 0.001.
For `O=C(Cc1ccc(I)cc1)N1CCN(C(=O)c2cc(Cc3n[nH]c(=O)c4ccccc34)ccc2F)CC1` [I4-PARPi, 4-(4-fluoro-3-(4-(2-(4-iodophenyl)acetyl)piperazine-1-carbonyl)benzyl)phthalazin-1(2H)-one], in that order: 74 ± 5 nM, 66.7 and 0.05 ± 0.003.
In turn, `O=C(CCc1cccc(I)c1)N1CCN(C(=O)c2cc(Cc3n[nH]c(=O)c4ccccc34)ccc2F)CC1` [I5-PARPi, 4-(4-fluoro-3-(4-(3-(3-iodophenyl)propanoyl)piperazine-1-carbonyl)benzyl)phthalazin-1(2H)-one] displayed an IC50 in series [3] of 107 ± 4 nM. In series [4], the “CHI (chromatographic hydrophobicity index)” value stood at 71.6. For the same molecule, the fraction unbound at 4 h, 10 μM in [1] is 0.078 ± 0.014.
For `O=C(CCc1ccc(I)cc1)N1CCN(C(=O)c2cc(Cc3n[nH]c(=O)c4ccccc34)ccc2F)CC1` [I6-PARPi, 4-(4-fluoro-3-(4-(3-(4-iodophenyl)propanoyl)piperazine-1-carbonyl)benzyl) phthalazin-1(2H)-one], in that order: 47 ± 5 nM, 71.6 and 0.047 ± 0.005.
Turning to `O=C(c1cc(Cc2n[nH]c(=O)c3ccccc23)ccc1F)N1CCN(C(=O)C2CC2)CC1` [Olaparib], the logPCHI in [4] (derived from CHI by equation) is 0.8. The “reduction of PARPi-FL uptake (fluorescence signal)” value with U87 MG cells (25 µM) is 73 ± 11%; in the series with U87 MG cells (PARPi-FL 250 nM, inhibitor 25 μM (100-fold), U87 MG cells), 73 ± 10%.
`Cc1cc(C)n2c1C=C1C=CC(CCC(=O)N3CCN(C(=O)c4cc(Cc5n[nH]c(=O)c6ccccc56)ccc4F)CC3)=[N+]1[B-]2(F)F` [PARPi-FL, reference compound]: the “tumor fluorescence, average radiant efficiency” value in series [2] (PARPi-FL 2.5 mg/kg alone) is on record as 2.03 × 10^8 ± 1.84 × 10^7.
For `O=C(c1ccc([131I])cc1)N1CCN(C(=O)c2cc(Cc3n[nH]c(=O)c4ccccc34)ccc2F)CC1` [[^131I]-I2-PARPi], in series [5], the uptake in brain is 0.01 ± 0.00 %ID/g and 0.011 ± 0.003 %ID/g; the uptake in liver is 2.35 ± 0.57 %ID/g and 2.4 ± 0.6 %ID/g; the uptake in muscle is 0.03 ± 0.01 %ID/g and 0.033 ± 0.012 %ID/g; the uptake in thyroid was 0.24 ± 0.06 %ID/g. The molecule also showed an uptake in tumor in series [5] of 0.43 ± 0.06 %ID/g. The “in vitro blood stability” value in series [6] was “stability of the drug over the course of 120 min”. Besides, in series [7], the uptake in brain was found to be 0.007 ± 0.002 %ID/g, the uptake in muscle came to 0.04 ± 0.02 %ID/g and the uptake in tumor was determined as 0.50 ± 0.08 %ID/g. For the same molecule, in series [8], the alpha blood half-life came to 14.3 min, the beta blood half-life was 94.6 min, the “share of alpha phase” value was 96.25% and the “share of beta phase” value is given as 3.75%. Besides, the “weighted blood half-life t1/2(weighted)” value in series [8] is 17.1 min.
